Assay results: article PMC8745710, “Biological Evaluation and Molecular Docking Studies of Novel 1,3,4-Oxadiazole Derivatives of 4,6-Dimethyl-2-sulfanylpyridine-3-carboxamide” (International Journal of Molecular Sciences, 2022)
Read-outs that look alike come from different tables or passages of the source.

Experiments:
[1] = system: VERO (kidney epithelial cells); assay: MTT assay, VERO; assay type: cell-based; conditions: Chlorocebus sabaeus, Vero, 48 h incubation, read-out: IC50 [µM] ± SD VERO
Description: The MTT (3-[4,5-dimethylthiazol-2-yl]-2,5-diphenyl tetrazolium bromide) assay was used to determine the cytotoxicity of tested compounds towards different cell lines: normal human dermal fibroblasts (NHDF), kidney epithelial cells (VERO), fibroblasts from Chinese hamster lung (V79) and four human cancer cells: A549 (pulmonary basal cell alveolar adenocarcinoma), MCF-7 (breast adenocarcinoma), LoVo (colon adenocarcinoma), and its drug resistant subline LoVo/Dx. The cell lines used in this study express COX-1 and COX-2. The LoVo line expressed COX-1, the LoVo/Dx subline express both COX-1 and COX-2 [61].
Each cell line was grown in the culture media recommended by supplier. Before the test they were detached with trypsin/EDTA solution, then to neutralize the effect of Trypsin/EDTA solution, FBS containing medium was used. After centrifugation the cells were stained with 0.4% solution of trypan blue, counted and inspected for viability using microscope. In the end, cells were inserted into 96-well culture plates and incubated in CO2 incubator (37 °C, 24 h). The number of cells was 2 × 10^3 cells per well. The tested compounds with different concentrations (5, 10, 20, 50, 100 µM) were dissolved in DMSO and then added to the cells (the final DMSO concentration was 0.1%). The cultures were incubated for another 48 h. After that time the cells were collected to be used in tests.
MTT assay was used to find out how tested compounds influence the metabolic activity of investigated cell lines. The cells were incubated with tested compounds. After removing of supernatant, 1 mg/mL of MTT solution in MEM was added to the plate (to each well) and then the plates were incubated at 37 °C for 2 h. The medium was removed again, and formazan crystals were dissolved in isopropanol. A Varioscan LUX microplate reader (Thermo Fisher Scientific, Waltham, MA, USA) was used to measure absorbance at 570 nm.

LoVo cell line = assay: Intracellular ROS level (DCFH-DA), LoVo cells; assay type: cell-based; conditions: Homo sapiens, 4 h, compound 100 μM
Description: Two cell lines were chosen for investigations: V79 (Chinese hamster lung fibroblasts) and LoVo. V79 normal cells are widely used as the cell line tested in the studies of the oxidative stress. These cells are a living system model to explain the mechanism of ROS effects caused by varied compounds [73].
First, the tested compounds (in concentration of 100 μM) were added to the cell cultures and cells were incubated for 4 h. Then cells were washed and incubated with DCFH-DA (non-fluorescent probe) in dark at 37 °C for 2 h at CO2 [79]. Non-fluorescent, non-polar DCFH-DA (2′7′-dichlorodihydrofluorescein diacetate) at concentration of 25 μM was used as a marker of oxidative stress to determine the intracellular ROS levels. […] In this time, DCFH-DA which penetrated into the cells, was hydrolyzed by esterases to polar, non-fluorescent DCFH (2′7′-dichlorodihydrofluorescein) and then oxidized in the presence of ROS (reactive oxygen species) to fluorescent DCF (2′7′-dichlorofluorescein). DCF was measured using Varioscan LUX microplate reader (Thermo Fisher Scientific, Waltham, MA, USA) at λex = 485 nm and λem = 535 nm.
E is the culture with the tested compound and E0 is the negative control without the compound. The routine statistical methods: two-way analysis of variance ANOVA as well as Tukey’s post-hoc test were used. It allowed us to determine the statistical significance of results, where p < 0.05 was set as significant. The statistical indicators were estimated using Statistica 13.3 software.

[2] = with H2O2 (100 μM, 30 min), n = 5, read-out: ROS scavenging activity, Mean E/E0 ± SD, with H2O2
[3] = without H2O2, n = 5, read-out: ROS scavenging activity, Mean E/E0 ± SD, without H2O2

What does the source list for `Cc1ccc(C=NNC(=O)Cn2nc(CNC(=O)c3c(C)cc(C)nc3S)oc2=S)cc1` [Compound 7, 4,6-Dimethyl-N-{[4-(2-(2-(4-methylbenzylidene)hydrazinyl)-2-oxoethyl)-5-sulfanylidene-4,5-dihydro-1,3,4-oxadiazole-2-yl]methyl}-2-sulfanylpyridine-3-carboxamide]?
IC50 [1]: 68.3 ± 3.24 µM; activity at 100 µM (LoVo cell line; [2]): 95 ± 27%; activity at 100 µM (LoVo cell line; [3]): 107 ± 38%

Which results are given for `Cc1cc(C)c(C(=O)NCc2nn(CC(=O)NN=Cc3cccc(Cl)c3)c(=S)o2)c(S)n1` [Compound 12, 4,6-Dimethyl-N-{[4-(2-(2-(3-chlorobenzylidene)hydrazinyl)-2-oxoethyl)-5-sulfanylidene-4,5-dihydro-1,3,4-oxadiazole-2-yl]methyl}-2-sulfanylpyridine-3-carboxamide]?
IC50 [1]: 79.2 ± 14.4 µM; activity at 100 µM (LoVo cell line; [2]): 79 ± 16%; activity at 100 µM (LoVo cell line; [3]): 91 ± 43%

What does the source list for `Cc1cc(C)c(C(=O)NCc2nn(CC(=O)NN=Cc3ccc(C#N)cc3)c(=S)o2)c(S)n1` [Compound 9, 4,6-Dimethyl-N-{[4-(2-(2-(4-cyanobenzylidene)hydrazinyl)-2-oxoethyl)-5-sulfanylidene-4,5-dihydro-1,3,4-oxadiazole-2-yl]methyl}-2-sulfanylpyridine-3-carboxamide]?
IC50 [1]: 89.8 ± 8.43 µM; activity at 100 µM (LoVo cell line; [2]): 91 ± 19%; activity at 100 µM (LoVo cell line; [3]): 76 ± 22%

`Cc1cc(C)c(C(=O)NCc2nn(CC(=O)NN=Cc3ccccc3Br)c(=S)o2)c(S)n1` [Compound 13, 4,6-Dimethyl-N-{[4-(2-(2-(2-bromobenzylidene)hydrazinyl)-2-oxoethyl)-5-sulfanylidene-4,5-dihydro-1,3,4-oxadiazole-2-yl]methyl}-2-sulfanylpyridine-3-carboxamide] was tested. Which IC50 [1] did it give?
Its IC50 is 55.7 ± 1.84 µM.

And the activity at 100 µM (LoVo cell line; [2])?
The activity at 100 µM was 69 ± 10%.

What about the activity at 100 µM (LoVo cell line; [3]) of the same compound?
Its activity at 100 µM is 70 ± 30%.

What does the source list for `CSc1ccc(/C=N\NC(=O)Cn2nc(CNC(=O)c3c(C)cc(C)nc3S)oc2=S)cc1` [Compound 8, 4,6-Dimethyl-N-{[4-(2-(2-(4-methysulfanylbenzylidene)hydrazinyl)-2-oxoethyl)-5-sulfanylidene-4,5-dihydro-1,3,4-oxadiazole-2-yl]methyl}-2-sulfanylpyridine-3-carboxamide]?
IC50 [1]: 50.4 ± 2.45 µM; activity at 100 µM (LoVo cell line; [2]): 80 ± 22%; activity at 100 µM (LoVo cell line; [3]): 65 ± 20%

Which IC50 [1] does the source give for `Cc1cc(C)c(C(=O)NCc2nn(CC(=O)NN)c(=S)o2)c(S)n1` [Compound 4, N-{[4-(2-hydrazinyl-2-oxoethyl)-5-sulfanylidene-4,5-dihydro-1,3,4-oxadiazol-2-yl]methyl}-4,6-dimethyl-2-sulfanylpyridine-3-carboxamide] here?
The IC50 was 77.4 ± 5.84 µM.

And the activity at 100 µM (LoVo cell line; [2])?
Its activity at 100 µM is 83 ± 8%.

What about the activity at 100 µM (LoVo cell line; [3]) of the same compound?
Its activity at 100 µM is 69 ± 33%.

What does the source list for `Cc1cc(C)c(C(=O)NCc2nn(CC(=O)NN=Cc3ccc(C(F)(F)F)cc3)c(=S)o2)c(S)n1` [Compound 11, 4,6-Dimethyl-N-{[4-(2-(2-(4-trifluoromethylbenzylidene)hydrazinyl)-2-oxoethyl)-5-sulfanylidene-4,5-dihydro-1,3,4-oxadiazole-2-yl]methyl}-2-sulfanylpyridine-3-carboxamide]?
IC50 [1]: 104 ± 4.98 µM; activity at 100 µM (LoVo cell line; [2]): 84 ± 17%; activity at 100 µM (LoVo cell line; [3]): 124 ± 65%

`Cc1cc(C)c(C(=O)NCc2nn(CC(=O)NN=Cc3ccc(F)cc3)c(=S)o2)c(S)n1` [Compound 6, 4,6-Dimethyl-N-{[4-(2-(2-(4-fluorobenzylidene)hydrazinyl)-2-oxoethyl)-5-sulfanylidene-4,5-dihydro-1,3,4-oxadiazole-2-yl]methyl}-2-sulfanylpyridine-3-carboxamide] was tested. Which IC50 [1] did it give?
Its IC50 is 59.6 ± 5.42 µM.

And the activity at 100 µM (LoVo cell line; [2])?
The activity at 100 µM was 88 ± 4%.

And the activity at 100 µM (LoVo cell line; [3])?
The activity at 100 µM was 74 ± 22%.

`Cc1cc(C)c(C(=O)NCc2nn(CC(=O)NN=Cc3ccc(Cl)cc3)c(=S)o2)c(S)n1` [Compound 10, 4,6-Dimethyl-N-{[4-(2-(2-(4-chlorobenzylidene)hydrazinyl)-2-oxoethyl)-5-sulfanylidene-4,5-dihydro-1,3,4-oxadiazole-2-yl]methyl}-2-sulfanylpyridine-3-carboxamide] was tested. Which IC50 [1] did it give?
The IC50 was 130 ± 9.5 µM.

What about the activity at 100 µM (LoVo cell line; [2]) of the same compound?
Its activity at 100 µM is 91 ± 14%.

What about the activity at 100 µM (LoVo cell line; [3]) of the same compound?
Its activity at 100 µM is 85 ± 27%.

With `Cc1cc(C)c(C(=O)NCc2nn(CC(=O)NN=Cc3ccccc3)c(=S)o2)c(S)n1` [Compound 5, 4,6-Dimethyl-N-{[4-(2-(2-benzylidenehydrazinyl)-2-oxoethyl)-5-sulfanylidene-4,5-dihydro-1,3,4-oxadiazol-2-yl]methyl}-2-sulfanylpyridine-3-carboxamide] as the compound, how does the IC50 [1] read?
The IC50 was 100 ± 13.5 µM.

What about the activity at 100 µM (LoVo cell line; [2]) of the same compound?
Its activity at 100 µM is 87 ± 21%.

And the activity at 100 µM (LoVo cell line; [3])?
The activity at 100 µM was 72 ± 21%.
